Laboratory results published in patent US9814758B2, “Inhibitors of apoptosis and uses thereof” (CENTRE NATIONAL DE LA RECHERCHE SCIENTIFIQUE-CNRS, priority 2010, dated 2017).
Non-standard residues stand in square brackets, D forms with d. Residues, ends and D or L forms follow the SMILES beside them. No end group written: not given here. Ahx = NCCCCCC(=O)O

Tests used:
[1] = Stability in 20% mouse serum (reverse-phase HPLC); type: in vitro ADME; conditions: 37° C.; for remaining at 2 h: 2 h incubation, read-out: peptide still intact; for peptide degradation: after 24 hours
Method: FIG. 3: Evaluation of Tat-DAXXp and Pip2b-DAXXp protease ability. (A) Stability measurements of Tat-DAXXp and Pip2b-DAXXp conjugates in fetal bovine serum (FBS, BioWest) and (B) freshly prepared mouse serum (MS). Peptides were incubated with 20% serum at 37° C. for 0 h, 1 h, 2 h, 4 h, 8 h, 24 h, and 48 h, and 50 μl of the incubation mixture was precipitated in 100 μl 10% dichloroacetic acid (DCA) in H2O/CH3CN (50/50). The samples were mixed and kept at −20° C. The precipitated serum proteins were separated by centrifugation (14,000 rpm, 10 minutes) and the supernatant was analyzed by reverse-phase HPLC (measurement of the peak area in mV*sec). n≧2 for each condition.

primary cardiomyocytes = assay: STS-induced DNA fragmentation (Cell Death detection ELISA PLUS) in primary cardiomyocytes; type: cell-based, mouse; conditions: for reduction of DNA fragmentation: peptide given together with staurosporine, 1 μM, related to STS-treated cells (=100%), FIG. 5B
Method: (§1) FIG. 5: In vitro evaluation of the anti-apoptotic activity of CPPs and CPP-conjugates. Workflow and quantitation of DNA fragmentation in (A) C2C12 cells, (B) primary cardiomyocytes, (C) H9c2 cells and (D) NG108-15 cells. Data were normalized to 100% STS. Data shown are the means±SEM, with n≧5. Cells were seeded in 24-well plates and grown overnight. The next day, the cells were incubated with STS alone or with STS+1 μM peptide (in OPTI-MEM) (OPTI-MEM® is a modification of Eagle's Minimum Essential Media, buffered with HEPES and sodium bicarbonate, and supplemented with hypoxanthine, thymidine, sodium pyruvate, L-glutamine, trace elements, and growth factors) (STS concentration and incubation time for each cells are given in the figure). Thereafter, solutions were removed, replaced by complete medium and further incubated for 40 h. Following the regeneration phase, the cells were lyzed and DNA fragmentation was detected according to manufacturer's instructions (Cell Death detection ELISA^PLUS kit—Roche Diagnostics).
FIG. 6: Anti-apoptotic activity of variants of the Tat-DAXXp sequence on primary cardiomyocytes. As described in the caption of FIG. 5, the different analogues of the DAXXp sequence (see Table 2) were assessed for anti-apoptotic properties against STS (Cell Death detection ELISA^PLUS kit—Roche Diagnostics) (A-B). None of the analogues were able to protect the primary cardiomyocytes—a fact which confirms that the 16mer DAXXp has the optimal length and sequence for highest cardioprotective effect.
FIG. 7: Comparison of the murine/rat DAXXp with the human DAXXp sequence in terms of anti-apoptotic activity on C2C12 cells, primary cardiomyocytes, and H9c2. The murine DAXXp sequence conjugated to Tat (Tat-mDAXXp—SEQ ID NO: 61) which is identical to the rat DAXXp sequence (see FIG. 1B), was compared to the human construct (Tat-DAXXp) in terms of anti-apoptotic properties against STS (Cell Death detection ELISA^PLUS kit—Roche Diagnostics). The C2C12 cells and the primary cardiomyocytes used were from mice and the H9c2 cells from rat.
FIG. 9: Comparison of FADDp constructs with Tat-DAXXp in terms of anti-apoptotic activity in primary cardiomyocytes and in H9c2 cells. Quantification of DNA normalized to 100% STS. Data shown are the means±SEM, with n≧5. Cells were seeded in 24-well plates and grown overnight. The next day, the cells were incubated with STS alone or with STS+1 μM peptide (in OPTI-MEM®) (OPTI-MEM® is a modification of Eagle's Minimum Essential Media, buffered with HEPES and sodium bicarbonate, and supplemented with hypoxanthine, thymidine, sodium pyruvate, L-glutamine, trace elements, and growth factors) (STS concentration is given in the figure and incubation time is given in FIG. 5). Thereafter, solutions were removed, replaced by complete medium and further incubated for 40 hours. Following the regeneration phase, the cells were lyzed and DNA fragmentation was detected according to manufacturer's instructions (Cell Death detection ELISA^PLUS kit—Roche Diagnostics).
FIG. 10: Comparison of Tat-DAXXp and Tat-FADDp15 alone and in combination in primary cardiomyocytes (A) and in H9c2 cells (B).
(§2) Thereafter, the capacity of these peptides to inhibit apoptosis induced by staurosporine was evaluated. Apoptosis was determined using the Cell Death detection ELISA^PLUS kit (Roche) measuring the DNA fragmentation.
In most publications, anti-apoptotic peptides currently available in the art are administrated 3-4 hours prior to apoptosis induction, which is poorly relevant to a clinical application. For that reason, the protocol used in the present study included administration of the peptides together with the staurosporine. […] This was not observed with CPP alone or with the Tat-scrDAXXp or Tat-ncDAXXp negative controls. […] To better compare the results, the DNA fragmentation (described by the enrichment factor) is related to the staurosporine-treated cells (=100%).

kidney graft = assay: Cold ischemia/reperfusion injury during kidney transplantation; type: in vivo, rat; conditions: preliminary
Source text: FIG. 17: Preliminary data on cold ischemia/reperfusion injury during kidney transplantation. Brain death and prolonged cold ischemia are major contributors to the poorer long-term outcome of transplants from deceased donor kidney transplants, with an even higher impact if expanded criteria donors (‘marginal organs’) are used. Targeting ischemia-reperfusion (IR) injury-related intragraft inflammation is an attractive concept to improve the outcome of those grafts. (A) Workflow of cold ischemia/reperfusion during kidney transplantation in rat. After a 24 h cold ischemia, the kidney graft was transplanted orthotopically into male LEW recipients using standard microsurgical techniques. Peptides were injected immediately after reperfusion in a single i.v injection at 1 mg/kg. Three days after transplantation, grafts were harvested for RT-PCR analysis (n=3). (B) Total RNA was reverse transcribed into cDNA and subjected to quantitative real-time RT-PCR utilizing the GENEAMP® 5700 Sequence Detection System (Applied Biosystems, Weiterstadt, Germany). The TAQMAN®-PCR reactions for ICAM-1, IFN-γ, TNF-α, interleukin (IL)-6 and bcl-2 (synthesized by Metabion, Martinsried, Germany) were performed in a final volume of 25 μl.

C2C12 cells = assay: STS-induced DNA fragmentation (Cell Death detection ELISA PLUS) in C2C12 cells; type: cell-based, mouse; conditions: murine C2C12 (model for muscle cells); FIG. 5A
Method: as §1, with “Thereafter, solutions were removed, replaced by complete medium and further incubated for 40 h.” left out, “Diagnostics). […]” for “Diagnostics).”
as §2
The anti-apoptotic effects of the peptides were also analyzed in murine NG118-15 (model for neuronal cells) (FIG. 5D), in murine C2C12 (model for muscle cells) (FIG. 5A) and in rat H9c2 (model for cardiac cells) (FIG. 5C). […]

[2] = 1 mg/kg single i.v. after reperfusion, kidney graft 3 days after transplantation, RT-PCR

Molecule | remaining at 2 h [1] | peptide degradation [1] | reduction of DNA fragmentation (primary cardiomyocytes) | ability to decrease cell apoptosis / protect the cells (primary cardiomyocytes; against STS) | mRNA expression of ICAM-1 (kidney graft; [2]) | mRNA expression of IFN-γ (kidney graft; [2]) | protection from ischemia-reperfusion injuries (kidney graft; 1 mg/kg, renal transplantation model (Rat)) | reduction in DNA fragmentation (C2C12 cells)
CC[C@H](C)[C@H](NC(=O)[C@H](Cc1c[nH]cn1)NC(=O)[C@@H](NC(=O)[C@H](CCCNC(=N)N)NC(=O)CCCCCNC(=O)[C@H](CCCNC(=N)N)NC(=O)[C@H](CCCNC(=N)N)NC(=O)CCCCCNC(=O)[C@H](CCCNC(=N)N)NC(=O)[C@H](CCCNC(=N)N)NC(=O)CCCCCNC(=O)[C@@H](N)CCCNC(=N)N)[C@@H](C)CC)C(=O)N[C@@H](CC(C)C)C(=O)N[C@@H](Cc1ccccc1)C(=O)N[C@@H](CCC(N)=O)C(=O)N[C@@H](CC(N)=O)C(=O)N[C@H](CCCNC(=N)N)C(=O)N[C@@H](CCCNC(=N)N)C(=O)N[C@@H](CCSC)C(=O)N[C@@H](CCCCN)C(=O)N[C@@H](Cc1c[nH]c2ccccc12)C(=O)N[C@@H](Cc1c[nH]cn1)C(=O)N[C@@H](CCCCN)C(=O)N[C@@H](CCCCN)C(=O)N[C@@H](CCCCN)C(=O)N[C@@H](CO)C(=O)N[C@@H](CCCNC(=N)N)C(=O)N[C@@H](CCCCN)C(=O)N[C@@H](CCC(=O)O)C(=O)N[C@@H](CCCCN)C(=O)N[C@@H](CCCCN)C(=O)N[C@@H](CCC(N)=O)C(=O)N[C@H](C(=O)NCC(=O)N[C@@H](CO)C(=O)NCC(=O)N1CCC[C@H]1C(=O)N[C@@H](CC(C)C)C(=O)NCC(N)=O)[C@@H](C)O [Pip2b-DAXXp, (RXR)3-IHILFQNrRMKWHK-KKSRKEKKQTGSGPLG-NH2] (H-R[Ahx]RR[Ahx]RR[Ahx]RIHILFQN[dR]RMKWHKKKSRKEKKQTGSGPLG-NH2; N-terminus assumed) | > 70% | all the peptide are degraded | 55% | – | – | – | – | –
KKSRKEKKQTGSGPLG-NH2 [DAXXp, KKSRKEKKQTGSGPLG-NH2] | – | – | – | capable of decreasing cell apoptosis | – | – | – | –
GRKKRRQRRRPPQKKSRKEKKQTGSGPLG-NH2 [Tat-DAXXp, GRKKRRQRRRPPQ-KKSRKEKKQTGSGPLG-NH2] | > 70% | all the peptide are degraded | 44% | – | reduction in mRNA expression | reduction in mRNA expression | able to protect from ischemia-reperfusion injuries | 24%
